Measurements as given in US10751311B2, “Compositions and methods of using modified release solabegron for lower urinary tract symptoms” (VELICEPT THERAPEUTICS, INC., priority 2014, dated 2020).

Legend:
beta-3 adrenoceptor [1] = biological target: T1, beta-3 adrenoceptor (Rattus norvegicus, UniProt P26255); test: Determination of EC90 concentration to inhibit EFS-induced contraction in rat isolated bladder (pilot CCRC); type: cell-based; conditions: PSS with 1 μM prazosin and 30 nM ICI118551, EFS 15 Hz
T1 construct: The bladder longitudinal smooth muscle, with the urothelium still attached were mounted in 25 ml organ baths; from tissue; host or cells: isolated bladder longitudinal smooth muscle strips (urothelium attached) from male CD rats
Experimental: Macroscopically normal bladders obtained from Male CD rats (220-250 g) were used. […] Each bladder was cleaned free of surrounding connective tissue and halved longitudinally. The bladder longitudinal smooth muscle, with the urothelium still attached were mounted in 25 ml organ baths containing physiological saline solution (PSS) (composition: 119.0 mM NaCl, 4.7 mM KCl, 1.2 mM MgSO4, 24.9 mM NaHCO3, 1.2 mM KH2PO4, 2.5 mM CaCl2 and 11.1 mM glucose) supplemented with 1 μM prazosin (α1-adrenoceptor antagonist) and 30 nM ICI118551 (β2-adrenoceptor antagonist), aerated with 95% O2/5% CO2 gas mix, warmed and maintained at approximately 37° C. throughout the experiment. Changes in force production were recorded using transducers. […]
In initial experiments the parameters for the EFS were assessed by performing a frequency curve to determine a frequency that would give a response that was approximately 80% of the response seen to 80 mM KCl. Optimal EFS parameters were determined to be: 30 Volts, square pulse of 0.1 ms, train of 4 seconds every 120 seconds, 15 Hz. […]
Pilot studies to determine EC90 concentrations of the test compounds were performed. […] From the data obtained in these experiments, EC90 concentrations of the test compounds were determined for use in subsequent experiments. […]

beta-3 adrenoceptor [2] = biological target: T1, beta-3 adrenoceptor; test: Receptor desensitization: CCRC after incubation with the EC90 concentration and PSS washout, EFS-stimulated rat bladder strips; type: cell-based
Experimental: Macroscopically normal bladders obtained from Male CD rats (220-250 g) were used. […] Each bladder was cleaned free of surrounding connective tissue and halved longitudinally. The bladder longitudinal smooth muscle, with the urothelium still attached were mounted in 25 ml organ baths containing physiological saline solution (PSS) (composition: 119.0 mM NaCl, 4.7 mM KCl, 1.2 mM MgSO4, 24.9 mM NaHCO3, 1.2 mM KH2PO4, 2.5 mM CaCl2 and 11.1 mM glucose) supplemented with 1 μM prazosin (α1-adrenoceptor antagonist) and 30 nM ICI118551 (β2-adrenoceptor antagonist), aerated with 95% O2/5% CO2 gas mix, warmed and maintained at approximately 37° C. throughout the experiment. Changes in force production were recorded using transducers. After mounting, the bladder halves were allowed to equilibrate for at least 30 min before they were set to a stable tension of approximately 1.0 g. The tissue was then allowed to equilibrate over at least a 60 min period with washes every 15 min.
In initial experiments the parameters for the EFS were assessed by performing a frequency curve to determine a frequency that would give a response that was approximately 80% of the response seen to 80 mM KCl. Optimal EFS parameters were determined to be: 30 Volts, square pulse of 0.1 ms, train of 4 seconds every 120 seconds, 15 Hz. This frequency was then used to stimulate the tissue for all subsequent experiments. The viability of bladder strips was tested by stimulating the tissue with EFS for minimum of ten minutes.
The bladder muscle strips were incubated with the EC90 determined for each test compound in the pilot studies, for a period of 1 or 3 hr. Following compound incubation, the tissues were washed with PSS for a period of 1, 3 or 6 hr, with washes approximately every 15 min, to remove the drug. At the end of the final wash period the tissues were stimulated with EFS, and left to equilibrate for at least 30 min. A CCRC was then performed in each tissue. Tissue responses were calculated as the mean (SEM) and expressed as percentage of EFS induced tone.
Tissues were incubated with the EC90 concentration of the test compounds for one hr followed by one hr, three hr or six hr of washing with PSS. […] This EFS-induced potentiation of bladder contraction from baseline was not observed with solabegron.
In the next series of experiments, tissues were incubated with the EC90 concentration of the test compounds for three hr followed by either one hr, three hr or six hr of washing with PSS.

[3] = pH-dependent solubility of solabegron; type: physicochemical
Description: (§1) For example, some compounds are differentially absorbed in different regions of the GI tract. […] Under these improved conditions, a second release of solabegron and absorption will result. Additionally, methods for the release of solabegron in the distal GI tract based on pH are presented herein.

[4] = Absorption of solabegron in regions of the GI tract; type: in vivo; conditions: solabegron and pharmaceutical salts thereof
Description: as §1

[5] = women with moderate to severe OAB; cited from earlier work
[6] = three hr incubation with EC90 concentration, one hr of washing

T1 sequence (P26255 whole entry): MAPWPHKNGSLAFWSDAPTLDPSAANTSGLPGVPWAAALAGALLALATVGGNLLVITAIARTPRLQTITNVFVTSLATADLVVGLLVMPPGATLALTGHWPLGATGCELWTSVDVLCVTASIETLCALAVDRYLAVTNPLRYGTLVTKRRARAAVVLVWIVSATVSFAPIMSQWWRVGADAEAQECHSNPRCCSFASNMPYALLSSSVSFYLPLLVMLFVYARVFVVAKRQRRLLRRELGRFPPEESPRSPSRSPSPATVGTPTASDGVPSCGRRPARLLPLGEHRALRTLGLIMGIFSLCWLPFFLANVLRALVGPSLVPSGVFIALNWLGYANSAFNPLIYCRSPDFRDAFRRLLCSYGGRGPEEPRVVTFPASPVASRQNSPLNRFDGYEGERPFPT

## C[C@H](Cc1ccc2c(c1)OC(C(=O)[O-])(C(=O)[O-])O2)NC[C@H](O)c1cccc(Cl)c1.[Na+].[Na+] [CL-316,243, reference compound]
beta-3 adrenoceptor [1]
  EC90: 42 nM
beta-3 adrenoceptor [2]; [6]
  Response to agonist (CCRC, reduction of EFS-induced tone) versus vehicle-incubated tissue: significantly attenuated

## O=C(O)c1cccc(-c2cccc(NCCNC[C@H](O)c3cccc(Cl)c3)c2)c1 [solabegron, 3′-[(2-{[(2R)-2-(3-chlorophenyl)-2-hydroxyethyl]amino}ethyl)amino]biphenyl-3-carboxylic acid]
beta-3 adrenoceptor [1]
  EC90: 1000 nM
beta-3 adrenoceptor [2]; one hr incubation with EC90 concentration, one hr of washing
  Response to agonist (CCRC, reduction of EFS-induced tone) versus vehicle-incubated tissue: significantly attenuated
beta-3 adrenoceptor [2]; one hr incubation with EC90 concentration, three hr of washing, higher concentrations
  Response to agonist (CCRC, reduction of EFS-induced tone) versus vehicle-incubated tissue: significantly attenuated
beta-3 adrenoceptor [2]; [6]
  Response to agonist (CCRC, reduction of EFS-induced tone) versus vehicle-incubated tissue: significantly attenuated
beta-3 adrenoceptor [2]; three hr incubation with EC90 concentration, three hr of washing, highest concentrations
  Response to agonist (CCRC, reduction of EFS-induced tone) versus vehicle-incubated tissue: significantly attenuated
[3]
  Solubility: pH-dependent solubility
[4]
  Absorption in the GI tract: optimum absorption in the proximal GI tract
[5]
  Effect on symptoms of overactive bladder: significantly reduce the symptoms of overactive bladder
  Safety, tolerability, adverse events compared to placebo: safe, well-tolerated, and does not demonstrate significant differences in adverse events as compared to placebo
